Measured values as given in patent publication US12162858B2, “Quinoline derivatives as inhibitors of AXL/MER RTK and CSF1R” (QURIENT CO., LTD., priority 2018, dated 2024).
Where two headings read alike, the source gives them in different places.

What was measured:
[1] = biological target: T1, Axl (Homo sapiens, UniProt P30530); experiment: LanthaScreen Eu kinase binding assay for Axl
T1 sequence (P30530 26-894): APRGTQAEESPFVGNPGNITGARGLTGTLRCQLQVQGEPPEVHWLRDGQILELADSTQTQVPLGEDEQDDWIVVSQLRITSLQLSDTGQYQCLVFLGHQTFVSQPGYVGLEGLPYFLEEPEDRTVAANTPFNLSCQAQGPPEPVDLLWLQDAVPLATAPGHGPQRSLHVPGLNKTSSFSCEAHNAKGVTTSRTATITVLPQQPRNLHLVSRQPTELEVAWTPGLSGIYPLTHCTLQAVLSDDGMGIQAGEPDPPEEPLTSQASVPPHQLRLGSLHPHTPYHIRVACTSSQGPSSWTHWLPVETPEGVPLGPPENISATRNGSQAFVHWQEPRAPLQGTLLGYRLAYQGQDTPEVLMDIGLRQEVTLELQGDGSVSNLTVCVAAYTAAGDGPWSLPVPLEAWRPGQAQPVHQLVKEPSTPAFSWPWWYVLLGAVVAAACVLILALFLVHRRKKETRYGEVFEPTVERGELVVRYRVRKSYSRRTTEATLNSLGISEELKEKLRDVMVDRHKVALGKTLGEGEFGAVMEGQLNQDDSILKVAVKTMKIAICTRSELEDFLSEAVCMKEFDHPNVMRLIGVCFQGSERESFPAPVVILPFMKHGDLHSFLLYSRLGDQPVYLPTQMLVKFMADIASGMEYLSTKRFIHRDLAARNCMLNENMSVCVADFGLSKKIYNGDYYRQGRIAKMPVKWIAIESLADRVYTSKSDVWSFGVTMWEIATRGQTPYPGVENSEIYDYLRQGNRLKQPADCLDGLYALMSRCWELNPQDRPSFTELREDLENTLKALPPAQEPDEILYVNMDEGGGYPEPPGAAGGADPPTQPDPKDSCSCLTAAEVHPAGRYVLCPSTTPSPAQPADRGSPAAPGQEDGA
Procedure: LanthaScreen® Eu Kinase Binding assays were conducted at Life Technologies using the manufacturer's specifications for each kinase indicated.
Briefly, the principle behind this assay is based upon the binding and displacement of an Alexa Fluor 647-labeled tracer to the kinase of interest. Binding of the tracer to the kinase is detected using an EU-labeled anti-tag antibody. Simultaneous binding of both the tracer and antibody to the kinase gives rise to a FRET-signal. Binding of an inhibitor to the kinase competes for binding with the tracer, resulting in a loss of FRET-signal.
A given compound was diluted in DMSO to make a stock compound solution. The stock compound solution was serially diluted over eight steps in DMSO. Each diluted compound solution in DMSO was diluted in kinase buffer. Afterwards four kinds of working solution were prepared. First, Tracer-Working solution consists of Tracer 236 and Kinase Buffer. Second, Axl, Mer, Tyro3 or Met/anti-GST-AB-Working solution contained one of the kinases Axl, and Mer or anti-GST-AB (=anti glutathione-S-transferase antibody) in Kinase Buffer. Third, anti-GST-AB-Working solution was made with anti-GST-AB and Kinase Buffer. Last, in the DMSO-Working solution DMSO was added to Kinase Buffer to a final concentration to 3%. Each of the four kinds of working solutions were separately added to the assay plate and then incubated for 1 h at room temperature. After incubation, the assay plate was measured with respect to the FRET-Signal with the EnVision (Perkin Elmer) using the program LanthaHTRF-Assay. Data evaluation was done in the Quattro Workflow software. Kd (the equilibrium dissociation constant) values were calculated relative to vehicle (DMSO) control wells.

[2] = biological target: CSF1R (Homo sapiens, UniProt P07333); experiment: KINOMEscan competition binding assay for CSF1R; set-up: DNA tag for qPCR (not a peptide); host or cells: E. coli/T7 phage or HEK-293; conditions: for Kd: read-out: CSF1R kinase binding activity (Kd)
Procedure: KINOMEscan™ is based on a competition binding assay that quantitatively measures the ability of a compound to compete with an immobilized, active-site directed ligand. The assay is performed by combining three components: DNA-tagged kinase; immobilized ligand; and a test compound. The ability of the test compound to compete with the immobilized ligand is measured via quantitative PCR of the DNA tag.
E. coli were grown to log-phase and infected with T7 phage and incubated with shaking at 32° C. until lysis. The lysates were centrifuged and filtered to remove cell debris. The remaining kinases were produced in HEK-293 cells and subsequently tagged with DNA for qPCR detection. Streptavidin-coated magnetic beads were treated with biotinylated small molecule ligands for 30 minutes at room temperature to generate affinity resins for kinase assays. The liganded beads were blocked with excess biotin and washed with blocking buffer (SeaBlock (Pierce), 1% BSA, 0.05% Tween 20, 1 mM DTT) to remove unbound ligand and to reduce non-specific binding. Binding reactions were assembled by combining kinases, liganded affinity beads, and test compounds in 1× binding buffer (20% SeaBlock, 0.17×PBS, 0.05% Tween 20, 6 mM DTT). Test compounds were prepared as 111× stocks in 100% DMSO. Kds were determined using an 11-point 3-fold compound dilution series with three DMSO control points. All compounds for Kd measurements are distributed by acoustic transfer (non-contact dispensing) in 100% DMSO. The compounds were then diluted directly into the assays such that the final concentration of DMSO was 0.9%. In case of % inhibition, test compounds were prepared as 40× stocks in 100% DMSO and directly diluted into the assay. All reactions performed in polypropylene 384-well plate. Each was a final volume of 0.02 ml. The assay plates were incubated at room temperature with shaking for 1 hour and the affinity beads were washed with wash buffer (1×PBS, 0.05% Tween 20). The beads were then re-suspended in elution buffer (1×PBS, 0.05% Tween 20, 0.5 μM non-biotinylated affinity ligand) and incubated at room temperature with shaking for 30 minutes. The kinase concentration in the eluates was measured by qPCR.
The CSF1R kinase binding activity results are shown in tables 1 (Kd) and 2 (percent inhibition at a concentration of 0.1 uM of compound to be tested).
Binding constants (Kds) were calculated with a standard dose-response curve using the Hill equation: […]
The Hill Slope was set to −1.
Curves were fitted using a non-linear least square fit with the Levenberg-Marquardt algorithm.
Binding % inhibition were calculated with as below:
[formula] • negative control=DMSO (100% Ctrl) • positive control=control compound (0% Ctrl)

[3] = read-out: Axl kinase binding activity (Kd)
[4] = read-out: CSF1R kinase binding activity, Percent (%) inhibition
[5] = read-out: CSF1R kinase binding activity, Range
[6] = comparison of compounds of present invention (**) vs compounds of WO2016/166250 (*), read-out: Binding activity Axl (Kd)

CSF1R, sequence (P07333 20-972): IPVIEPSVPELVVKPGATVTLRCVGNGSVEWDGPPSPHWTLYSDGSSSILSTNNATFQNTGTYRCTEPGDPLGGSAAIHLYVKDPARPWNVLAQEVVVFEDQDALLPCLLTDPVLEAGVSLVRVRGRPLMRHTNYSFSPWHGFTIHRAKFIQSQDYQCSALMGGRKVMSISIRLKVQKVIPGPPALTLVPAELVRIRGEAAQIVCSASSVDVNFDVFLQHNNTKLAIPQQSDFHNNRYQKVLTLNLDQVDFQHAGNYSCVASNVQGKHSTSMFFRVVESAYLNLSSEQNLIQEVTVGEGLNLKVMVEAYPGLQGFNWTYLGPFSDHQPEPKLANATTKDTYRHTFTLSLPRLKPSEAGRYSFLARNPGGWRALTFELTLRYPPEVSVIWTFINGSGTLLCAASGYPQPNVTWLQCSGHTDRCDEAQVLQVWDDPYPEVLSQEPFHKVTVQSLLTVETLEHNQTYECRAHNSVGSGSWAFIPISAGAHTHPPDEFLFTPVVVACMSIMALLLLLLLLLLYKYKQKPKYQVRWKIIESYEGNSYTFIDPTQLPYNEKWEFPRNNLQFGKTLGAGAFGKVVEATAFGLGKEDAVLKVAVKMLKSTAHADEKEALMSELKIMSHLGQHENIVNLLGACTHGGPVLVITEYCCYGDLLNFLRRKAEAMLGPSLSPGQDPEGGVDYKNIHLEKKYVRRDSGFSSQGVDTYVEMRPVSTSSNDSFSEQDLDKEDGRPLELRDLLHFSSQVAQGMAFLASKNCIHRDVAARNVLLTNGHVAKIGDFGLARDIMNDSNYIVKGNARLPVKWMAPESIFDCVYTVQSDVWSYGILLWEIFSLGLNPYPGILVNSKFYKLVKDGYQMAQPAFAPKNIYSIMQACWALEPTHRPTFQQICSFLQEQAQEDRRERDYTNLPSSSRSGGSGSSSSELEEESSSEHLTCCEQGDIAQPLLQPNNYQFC

Kd [1, 3] [nM] | inhibition at 0.1 µM [2, 4] [%] | inhibition at 0.1 µM [2, 5] [%] | Kd [2] [nM] | SMILES | Kd [1, 6] [nM]
< 100 | 89 | ≥ 80 | – | COc1cc2nccc(Oc3ccc(NC(=O)c4nn(C5CC5)cc4OCC4CCC4)nc3)c2cc1OC [Compound 111] | –
100 to 500 | 81 | ≥ 80 | – | COc1cc2nccc(Oc3ccc(NC(=O)c4nn(C5CCN(C)C5)cc4OCC(F)(F)F)nn3)c2cc1OC (centres unmarked) [Compound 157] | –
< 100 | 97 | ≥ 80 | – | COc1cc2nccc(Oc3ccc(NC(=O)c4nn(C5CC5)cc4OCC(F)(F)F)nn3)c2cc1OC [Compound 112] | –
< 100 | 94 | ≥ 80 | – | COc1cc2nccc(Oc3ccc(NC(=O)c4nn(C5CC5)cc4NCC(F)(F)F)nc3)c2cc1OC [Compound 145] | –
< 100 | 96 | ≥ 80 | – | COc1cc2nccc(Oc3ccc(NC(=O)c4nn(C5CC5)cc4OC(C)C)nc3)c2cc1OC [Compound 108] | –
≥ 500 | 4 | < 50 | – | COc1cc2nccc(Oc3ccc(NC(=O)c4nn(CCN)cc4OCC(F)(F)F)cn3)c2cc1OC [Compound 135] | –
100 to 500 | 5 | < 50 | – | CCCn1cc(OCCN(C)C)c(C(=O)Nc2ccc(Oc3ccnc4cc(OC)c(OC)cc34)c(F)c2)n1 [Compound 165] | –
< 100 | 94 | ≥ 80 | – | COc1cc2nccc(Oc3ccc(NC(=O)c4nn(CCOC5CC5)cc4OCC(F)(F)F)c(F)c3)c2cc1OC [Compound 115] | –
< 100 | 22 | < 50 | – | CNCCn1cc(OCC(F)(F)F)c(C(=O)Nc2ccc(Oc3ccnc4cc(OC)c(OC)cc34)c(F)c2)n1 [Compound 155] | –
< 100 | 36 | < 50 | – | COc1cc2nccc(Oc3ccc(NC(=O)c4nn(C5CCN(C)C5)cc4OCC(F)(F)F)cc3)c2cc1OC (centres unmarked) [Compound 100] | –
< 100 | 27 | < 50 | – | CCCn1cc(OCC(F)(F)F)c(C(=O)Nc2ccc(Oc3ccnc4cc(OC)c(OC)cc34)c(C(F)(F)F)c2)n1 [Compound 114] | –
≥ 500 | 16 | < 50 | – | COc1cc2nccc(Oc3ccc(NC(=O)c4nn(C5CCNC5)cc4OCC(F)(F)F)cn3)c2cc1OC (centres unmarked) [Compound 132] | –
< 100 | 91 | ≥ 80 | – | CCCn1cc(OCCOC)c(C(=O)Nc2ccc(Oc3ccnc4cc(OC)c(OC)cc34)cn2)n1 [Compound 105] | –
< 100 | 95 | ≥ 80 | – | COc1cc2nccc(Oc3ccc(NC(=O)c4nn(CCOC5CC5)cc4OCC(F)(F)F)nn3)c2cc1OC [Compound 120] | –
< 100 | 94 | ≥ 80 | < 100 | CCn1cc(OCC2CCC2)c(C(=O)Nc2ccc(Oc3ccnc4cc(OC)c(OC)cc34)cn2)n1 [Compound 8] | –
100 to 500 | 24 | < 50 | – | COc1cc2nccc(Oc3ccc(NC(=O)c4nn(CCO)cc4OCC(F)(F)F)cn3)c2cc1OC [Compound 129] | –
< 100 | 99 | ≥ 80 | – | COc1cc2nccc(Oc3ccc(NC(=O)c4n[nH]cc4OCC(F)(F)F)nc3)c2cc1OC [Compound 16] | 19
< 100 | 74 | 50 to 80 | – | COCCOc1cn(CC(C)O)nc1C(=O)Nc1ccc(Oc2ccnc3cc(OC)c(OC)cc23)cn1 (centres unmarked) [Compound 150] | –
100 to 500 | 60 | 50 to 80 | – | COc1cc2nccc(Oc3ccc(NC(=O)c4nn(C5CCN(C)C5)cc4OCC(F)(F)F)cc3C)c2cc1OC (centres unmarked) [Compound 98] | –
< 100 | 98 | ≥ 80 | < 100 | CCCn1cc(OCC(F)F)c(C(=O)Nc2ccc(Oc3ccnc4cc(OC)c(OC)cc34)cn2)n1 [Compound 12] | –
< 100 | 91 | ≥ 80 | – | COc1cc2nccc(Oc3ccc(NC(=O)c4nn(C5CC5)cc4OCC(F)F)nn3)c2cc1OC [Compound 162] | –
100 to 500 | 19 | < 50 | – | COc1cc2nccc(Oc3ccc(NC(=O)c4nn(C5CCNC5)cc4OCC(F)(F)F)nn3)c2cc1OC (centres unmarked) [Compound 122] | –

SMILES | Kd [1, 3] [nM] | inhibition at 0.1 µM [2, 4] [%] | inhibition at 0.1 µM [2, 5] [%] | Kd [2] [nM] | Kd [1, 6] [nM]
CCn1cc(OCC(F)(F)F)c(C(=O)Nc2ccc(Oc3ccnc4cc(OC)c(OC)cc34)cn2)n1 [Compound 4] | < 100 | 98 | ≥ 80 | < 100 | 1.1
